The numbers were not newly measured in patent US11701425B2, “Valerian composition and related methods” (Société des Produits Nestlé S.A., priority 2016, dated 2023), which cites them from elsewhere.

The conditions of this data set: reported value, no test by the applicant.

Regarding `CCCC(CCC)C(=O)O` [valproic acid], the pKa result is “about 5”. As to `CC1=C2[C@H](/C=C(\C)C(=O)O)CC[C@@H](C)[C@H]2CC1` [valerenic acid], the pKa entry is recorded as “about 5”.
